Reference: US20070185149A1, “Novel amido-substituted hydroxy-6-phenylphenanthridines and their use as pde4 inhibtors” (ALTANA PHARMA AG, priority 2004, published 2007)

Molecular target: T1, PDE4B2 (Homo sapiens, UniProt Q07343)
T1 construct: made in house; host or cells: SF21 insect cells (baculovirus; virus prepared in SF9 cells)
Experiment: Inhibition of PDE4 activity: PDE4B2 [3H]cAMP SPA enzyme assay
Type: biochemical
Details: recombinant PDE4B2 (SF21 cell supernatant), modified SPA test, 0.5 μM cAMP, 15 min at 37° C.; read-out: Inhibition of the PDE4 activity, −log IC50 (converted)
Method: The PDE4B2 (GB no. M97515) was a gift of Prof. M. Conti (Stanford University, USA). It was amplified from the original plasmid (pCMV5) via PCR with primers Rb9 (5′-[…]-3′) and Rb10 (5′-[…]-3′) and cloned into the pCR-Bac vector (Invitrogen, Groningen, NL).
The recombinant baculovirus was prepared by means of homologous recombination in SF9 insect cells.
The expression plasmid was cotransfected with Bac-N-Blue (Invitrogen, Groningen, NL) or Baculo-Gold DNA (Pharmingen, Hamburg) using a standard protocol (Pharmingen, Hamburg). Wt virus-free recombinant virus supernatant was selected using plaque assay methods. After that, high-titre virus supernatant was prepared by amplifying 3 times. PDE was expressed in SF21 cells by infecting 2×10^6 cells/ml with an MOI (multiplicity of infection) between 1 and 10 in serum-free SF900 medium (Life Technologies, Paisley, UK). The cells were cultured at 28° C. for 48-72 hours, after which they were pelleted for 5-10 min at 1000 g and 4° C.
The SF21 insect cells were resuspended, at a concentration of approx. 10^7 cells/ml, in ice-cold (4° C.) homogenization buffer (20 mM Tris, pH 8.2, containing the following additions: 140 mM NaCl, 3.8 mM KCl, 1 mM EGTA, 1 mM MgCl2, 10 mM β-mercaptoethanol, 2 mM benzamidine, 0.4 mM Pefablock, 10 μM leupeptin, 10 μM pepstatin A, 5 μM trypsin inhibitor) and disrupted by ultrasonication. The homogenate was then centrifuged for 10 min at 1000×g and the supernatant was stored at −80° C. until subsequent use (see below). The protein content was determined by the Bradford method (BioRad, Munich) using BSA as the standard.
PDE4B2 activity is inhibited by the said compounds in a modified SPA (scintillation proximity assay) test, supplied by Amersham Biosciences (see procedural instructions “phosphodiesterase [3H]cAMP SPA enzyme assay, code TRKQ 7090”), carried out in 96-well microtitre plates (MTP's). The test volume is 100 μl and contains 20 mM Tris buffer (pH 7.4), 0.1 mg of BSA (bovine serum albumin)/ml, 5 mM Mg^2+, 0.5 μM cAMP (including about 50,000 cpm of [3H]cAMP), 1 μl of the respective substance dilution in DMSO and sufficient recombinant PDE (1000×g supernatant, see above) to ensure that 10-20% of the cAMP is converted under the said experimental conditions. […] After a preincubation of 5 min at 37° C., the reaction is started by adding the substrate (cAMP) and the assay is incubated for a further 15 min; after that, it is stopped by adding SPA beads (50 μl). In accordance with the manufacturer's instructions, the SPA beads had previously been resuspended in water, but were then diluted 1:3 (v/v) in water; the diluted solution also contains 3 mM IBMX to ensure a complete PDE activity stop. After the beads have been sedimented (>30 min), the MTP's are analyzed in commercially available […]. The corresponding IC50 values of the compounds for the inhibition of PDE activity are determined from the concentration-effect curves by means of non-linear regression.

T1 sequence (Q07343 1-564 isoform Q07343-2): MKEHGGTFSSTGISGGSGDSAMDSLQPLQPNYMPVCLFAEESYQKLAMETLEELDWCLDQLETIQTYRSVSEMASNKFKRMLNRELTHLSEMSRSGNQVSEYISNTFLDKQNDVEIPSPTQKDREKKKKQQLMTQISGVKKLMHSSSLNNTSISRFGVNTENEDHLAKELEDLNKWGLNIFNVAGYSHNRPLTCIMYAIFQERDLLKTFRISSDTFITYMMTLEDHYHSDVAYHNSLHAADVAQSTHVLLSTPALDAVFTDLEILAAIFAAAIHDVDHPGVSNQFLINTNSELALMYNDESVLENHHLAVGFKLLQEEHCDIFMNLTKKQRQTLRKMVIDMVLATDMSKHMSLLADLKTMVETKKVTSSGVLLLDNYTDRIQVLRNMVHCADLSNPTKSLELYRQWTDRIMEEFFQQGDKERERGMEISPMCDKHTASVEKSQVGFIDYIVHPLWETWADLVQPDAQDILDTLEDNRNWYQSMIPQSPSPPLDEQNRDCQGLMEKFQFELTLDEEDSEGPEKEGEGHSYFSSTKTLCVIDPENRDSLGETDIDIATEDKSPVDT

IC50 [nM]	SMILES
0.955 to 8.71	COc1cc2c(cc1OC)[C@H]1C[C@H](O)CC[C@H]1N=C2c1ccc(C(=O)NCCc2ccncc2)cc1 (racemic) [Compound 20, 4-((2RS,4aRS,10bRS)-2-Hydroxy-8,9-dimethoxy-1,2,3,4,4a,10b-hexahydro-phenanthridin-6-yl)-N-(2-pyridin-4-yl-ethyl)-benzamide]
0.955 to 8.71	COc1cc2c(cc1OC(F)F)[C@H]1C[C@H](O)CC[C@H]1N=C2c1ccc(C(=O)N2CCCC2)cc1 (racemic) [Compound 33, 1-{4-[(2RS,4aRS,10bRS)-9-(1,1-Difluoro-methoxy)-2-hydroxy-8-methoxy-1,2,3,4,4a,10b-hexahydro-phenanthridin-6-yl]-phenyl}-1-pyrrolidin-1-yl-methanone]
0.955 to 8.71	COc1cc2c(cc1OC(F)F)[C@H]1C[C@H](O)CC[C@H]1N=C2c1ccc(C(=O)N2CCN(CC(=O)Nc3ccccn3)CC2)cc1 (racemic) [Compound 31, 2-[4(1-{4-[(2RS,4aRS,10bRS)-9-(1,1-Difluoro-methoxy)-2-hydroxy-8-methoxy-1,2,3,4,4a,10b-hexahydro-phenanthridin-6-yl]-phenyl}-methanoyl)-piperazin-1-yl]-N-pyridin-2-yl-acetamide]
0.955 to 8.71	COc1cc2c(cc1OC(F)F)[C@H]1C[C@H](O)CC[C@H]1N=C2c1ccc(C(=O)N(C)C)cc1 (racemic) [Compound 24, 4-[(2RS,4aRS,10bRS)-9-(1,1-Difluoro-methoxy)-2-hydroxy-8-methoxy-1,2,3,4,4a,10b-hexahydro-phenanthridin-6-yl]-N,N-dimethyl-benzamide]
0.955 to 8.71	COc1cc2c(cc1OC)[C@H]1C[C@H](O)CC[C@H]1N=C2c1ccc(C(=O)NNC(=O)N2CCOCC2)cc1 (racemic) [Compound 22, 4-((2RS,4aRS,10bRS)-2-Hydroxy-8,9-dimethoxy-1,2,3,4,4a,10b-hexahydro-phenanthridin-6-yl)benzoic acid N′-(1-morpholin-4-yl-methanoyl)-hydrazide]
0.955 to 8.71	COc1ccc(NC(=O)c2ccc(C3=N[C@@H]4CC[C@@H](O)C[C@@H]4c4cc(OC)c(OC)cc43)cc2)c(OC)n1 (racemic) [Compound 23, N-(2,6-Dimethoxy-pyridin-3-yl)-4-((2RS,4aRS,10bRS)-2-hydroxy-8,9-dimethoxy-1,2,3,4,4a,10b-hexahydro-phenanthridin-6-yl)benzamide]

The next lines start with the molecule.

SMILES	IC50 [nM]
COc1cc2c(cc1OC)[C@H]1C[C@H](O)CC[C@H]1N=C2c1ccc(C(=O)NN2CCN(C)CC2)cc1 (racemic) [Compound 3, 4-((2RS,4aRS,10bRS)-2-Hydroxy-8,9-dimethoxy-1,2,3,4,4a,10b-hexahydro-phenanthridin-6-yl)-N-(4-methyl-piperazin-1-yl)benzamide]	0.955 to 8.71
COc1cc2c(cc1OC)[C@H]1C[C@H](O)CC[C@H]1N=C2c1ccc(C(=O)N2CCN(CCN3CCOCC3)CC2)cc1 (racemic) [Compound 9, 1-[4-((2RS,4aRS,10bRS)-2-Hydroxy-8,9-dimethoxy-1,2,3,4,4a,10b-hexahydro-phenanthridin-6-yl)-phenyl]-1-[4-(2-morpholin-4-yl-ethyl)-piperazin-1-yl]methanone]	0.955 to 8.71
COc1cc2c(cc1OC)[C@H]1C[C@H](O)CC[C@H]1N=C2c1ccc(C(=O)Nc2cnc3ccccc3c2)cc1 (racemic) [Compound 6, 4-((2RS,4aRS,10bRS)-2-Hydroxy-8,9-dimethoxy-1,2,3,4,4a,10b-hexahydro-phenanthridin-6-yl)-N-quinolin-3-yl-benzamide]	0.955 to 8.71
COc1cc2c(cc1OC)C1CC(O)CCC1N=C2c1ccc(C(=O)NN2CCOCC2)cc1 (stereo not drawn) [Compound 4]	0.955 to 8.71
COc1cc2c(cc1OC)[C@H]1C[C@H](O)CC[C@H]1N=C2c1ccc(C(=O)N2CCN(CC(=O)Nc3cccnc3)CC2)cc1 (racemic) [Compound 13, 2-(4-{1-[4-((2RS,4aRS,10bRS)-2-Hydroxy-8,9-dimethoxy-1,2,3,4,4a,10b-hexahydro-phenanthridin-6-yl)phenyl]methanoyl}-piperazin-1-yl)-N-pyridin-3-yl-acetamide]	0.955 to 8.71
COc1cc2c(cc1OC)C1CC(O)CCC1N=C2c1ccc(C(=O)NCCCN2CCOCC2)cc1 (stereo not drawn) [Compound 2]	0.955 to 8.71
